From patent US9981909B2 (Janssen Pharmaceutica NV, priority 2008, dated 2018)
Structures can show the parent of a compound that is named as a salt.

Columns and labels:
[1] = molecular target: human SERT (Homo sapiens (Human), UniProt P31645); assay: human SERT binding assay with [3H]-citalopram on HEK-293 membranes; details: read-out: hSERT binding Ki
Method: Receptor binding was performed using membrane fractions prepared from the HEK-293 cell line recombinantly expressing rat 5-HT7 receptors (NCBI accession NM_022938). Compound affinity for the rat 5-HT7 receptor subtype was evaluated by competitive radioligand binding assays using 5-carboxamido[^3H]tryptamine ([^3H]5-CT) (Amersham Biosciences, cat. 90000403) detection. HitHunter™ cAMP assays are in-vitro based competitive immunoassays. The assay was performed on the HEK-293 cell line stably transfected with r5-HT7 receptor. Cells were pre-incubated with test compounds for 10 minutes. For antagonist testing, the cells were then challenged with 100 nM 5-CT for 20 minutes. Cells were then lysed and cAMP measured according to manufacturers protocol (Amersham, cat. NET791250UC) or [^3H]mesulergine (Amersham, cat. TRK1041). The assay was performed on membranes prepared from HEK-293 cells stably transfected with h5-HT6. Following centrifugation, membranes were resuspended and incubated for 60 min at room temperature with 1.7 nM [^3H]LSD in the presence of increasing concentration of test compounds. Nonspecific binding was defined in the presence of 10 μM clozapine (Tocris, cat. TRK1068). Homogenized HEK-293 membranes expressing the human SERT were incubated in 50 mM Tris-HCl (pH 7.5), 120 mM NaCl, 5 mM KCl with [^3H]-citalopram (3 nM) with or without test compounds. Nonspecific binding was determined in the presence of 10 μM fluoxetine. Radioactivity readouts and Ki values were performed as previously described for r5-HT7. […] Compounds were assayed in their free form or as salts, as indicated in the Examples section above.

[2] = molecular target: rat 5-HT7 receptor (Rattus norvegicus (Rat), UniProt P32305); assay: r5-HT7 binding assay, competitive radioligand binding with [3H]5-CT
rat 5-HT7 receptor, sequence (P32305 1-435): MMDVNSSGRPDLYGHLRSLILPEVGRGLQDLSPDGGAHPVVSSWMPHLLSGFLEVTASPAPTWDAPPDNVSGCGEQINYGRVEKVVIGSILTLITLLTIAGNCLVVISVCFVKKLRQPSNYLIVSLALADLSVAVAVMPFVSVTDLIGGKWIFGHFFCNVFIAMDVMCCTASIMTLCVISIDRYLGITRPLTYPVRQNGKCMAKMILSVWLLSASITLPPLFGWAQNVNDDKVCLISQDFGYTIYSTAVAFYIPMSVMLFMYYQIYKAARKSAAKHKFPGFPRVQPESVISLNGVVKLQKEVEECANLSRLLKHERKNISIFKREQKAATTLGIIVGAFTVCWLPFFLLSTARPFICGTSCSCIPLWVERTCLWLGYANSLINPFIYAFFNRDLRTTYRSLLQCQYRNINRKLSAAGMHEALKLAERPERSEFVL
In short: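 Competition against [3H]5-CT on rat 5-HT7 HEK-293 membranes; Ki from radioactivity. Functional: 10 min compound, 100 nM 5-CT for 20 min, cAMP immunoassay after lysis.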

[3] = rat 5-HT7 receptor, HEK-293 membranes

human SERT, sequence (P31645 whole entry): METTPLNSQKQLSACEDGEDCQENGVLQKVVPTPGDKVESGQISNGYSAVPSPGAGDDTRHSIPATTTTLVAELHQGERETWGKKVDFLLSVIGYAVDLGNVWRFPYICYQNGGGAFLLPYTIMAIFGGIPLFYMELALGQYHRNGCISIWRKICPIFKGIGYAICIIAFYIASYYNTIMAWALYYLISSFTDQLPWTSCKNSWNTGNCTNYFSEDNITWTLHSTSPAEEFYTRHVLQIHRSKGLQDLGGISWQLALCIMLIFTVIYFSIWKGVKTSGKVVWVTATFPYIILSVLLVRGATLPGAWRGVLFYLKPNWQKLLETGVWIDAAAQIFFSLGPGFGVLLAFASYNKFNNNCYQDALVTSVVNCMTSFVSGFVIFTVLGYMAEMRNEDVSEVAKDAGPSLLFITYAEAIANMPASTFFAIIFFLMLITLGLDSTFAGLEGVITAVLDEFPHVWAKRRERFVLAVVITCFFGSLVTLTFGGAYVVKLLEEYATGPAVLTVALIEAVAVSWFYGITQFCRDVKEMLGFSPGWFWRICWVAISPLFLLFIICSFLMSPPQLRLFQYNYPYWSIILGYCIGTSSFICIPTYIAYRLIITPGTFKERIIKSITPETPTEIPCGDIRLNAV

| SMILES | Ki [1] [nM] | Ki [2, 3] [nM] | Ki ([2]; rat 5-HT7, HEK-293 membranes) [nM] |
| --- | --- | --- | --- |
| Fc1ccc(COc2ccc(Cl)cc2OC2CNC2)cc1C(F)(F)F [Example 47, 3-[5-Chloro-2-(4-fluoro-3-trifluoromethyl-benzyloxy)-phenoxy]-azetidine] | 21 | 11 | – |
| CC(Oc1ccc(Cl)cc1OC1CNC1)c1ccc(F)cc1 (racemic) [Example 124, (±)-3-[5-Chloro-2-[1-(4-fluoro-phenyl)-ethoxy]-phenoxy]-azetidine] | 20 | 43 | – |
| Clc1cccc(COc2cc(Br)ccc2OC2CNC2)c1 [Example 22, 3-[4-Bromo-2-(3-chloro-benzyloxy)-phenoxy]-azetidine] | 28 | 125 | – |
| CC(Oc1ccc(Cl)cc1OC1CCNCC1)c1cccc(Cl)c1 (racemic) [Example 136, (±)-4-[5-Chloro-2-[1-(3-chloro-phenyl)-ethoxy]-phenoxy]-piperidine] | 98 | 29 | – |
| Cc1nc(-c2cccc(COc3ccc(Cl)cc3OC3CNC3)c2)no1 [Example 31, 3-[3-[2-(Azetidin-3-yloxy)-4-chloro-phenoxymethyl]-phenyl]-5-methyl-[1,2,4]oxadiazole hydrochloride] | 90 | 100 | – |
| FC(F)(F)c1ccc(COc2ccc(Cl)cc2OC2CNC2)cc1 [Example 43, 3-[5-Chloro-2-(4-trifluoromethyl-benzyloxy)-phenoxy]-azetidine] | 86 | 15 | – |
| Cc1ccc2c(c1)CCC2Oc1ccc(Br)cc1OC1CNC1 (racemic) [Example 155, (±)-3-[5-Bromo-2-(5-methyl-indan-1-yloxy)-phenoxy]-azetidine] | 45 | 19 | – |
| C[C@@H]1[C@@H](Oc2ccc(Cl)cc2OC2CNC2)CN1Cc1ccccc1 (racemic) [Example 223, (±)-3-[5-Chloro-2-(trans-1-benzyl-2-methyl-azetidin-3-ol)-phenoxy]-azetidine] | 9000 | – | 145 |
| FC(F)(F)c1ccc(COc2ccc(Cl)cc2OC2CNC2)c(C(F)(F)F)c1 [Example 45, 3-[2-(2,4-Bis-trifluoromethyl-benzyloxy)-5-chloro-phenoxy]-azetidine] | 197 | 3160 | – |
| CC(Oc1ccc(Cl)cc1OC1CN(C)C1)c1cccc(C(F)(F)F)c1 (racemic) [Example 109, (±)-3-[5-Chloro-2-[1-(3-trifluoromethyl-phenyl)-ethoxy]-phenoxy]-1-methyl-azetidine] | 2900 | 5 | – |
| Clc1ccc(OCc2ccccn2)c(OC2CNC2)c1 [Example 51, 2-[2-(Azetidin-3-yloxy)-4-chloro-phenoxymethyl]-pyridine] | 86 | 387 | – |
| CC(Oc1ccc(Br)cc1OC1CNC1)c1cccc(OC(F)(F)F)c1 (racemic) [Example 110, (±)-3-[5-Bromo-2-[1-(3-trifluoromethoxy-phenyl)-ethoxy]-phenoxy]-azetidine] | 554 | 90 | – |
| CON=C(COc1ccc(Cl)cc1OC1CNC1)c1ccccc1 [Example 182, 2-[2-(Azetidin-3-yloxy)-4-chloro-phenoxy]-1-phenyl-ethanone O-methyl-oxime] | 514 | 76 | – |
| CC1(Oc2cc(Br)ccc2OCc2ccc(C(F)(F)F)o2)CNC1 [Example 216] | 36 | – | 16 |
| FC1(F)Oc2ccc(COc3ccc(Cl)cc3OC3CNC3)cc2O1 [Example 86, 3-[5-Chloro-2-(2,2-difluoro-benzo[1,3]dioxol-5-ylmethoxy)-phenoxy]-azetidine] | 121 | 38 | – |
| Clc1ccc(OCc2ccc3occc3c2)c(OC2CNC2)c1 [Example 83, 3-[2-(Benzofuran-5-ylmethoxy)-5-chloro-phenoxy]-azetidine] | 24 | 16 | – |
| FC(F)(F)Oc1ccc(COc2ccc(Cl)cc2OC2CNC2)cc1 [Example 42, 3-[5-Chloro-2-(4-trifluoromethoxy-benzyloxy)-phenoxy]-azetidine] | 578 | 35 | – |
| Clc1ccc(OCc2ccc3ncsc3c2)c(OC2CNC2)c1 [Example 84, 6-[2-(Azetidin-3-yloxy)-4-chloro-phenoxymethyl]-benzothiazole] | 61 | 34 | – |
| CC(Oc1ccc(Cl)cc1OC1CNC1)c1ccccc1F (racemic) [Example 121, (±)-3-[5-Chloro-2-[1-(2-fluoro-phenyl)-ethoxy]-phenoxy]-azetidine] | 164 | 33 | – |
| CC(Oc1ccc(Cl)cc1OC1CNC1)c1ccc(F)c(C(F)(F)F)c1 (racemic) [Example 117, (±)-3-[5-Chloro-2-[1-(4-fluoro-3-trifluoromethyl-phenyl)-ethoxy]-phenoxy]-azetidine] | 71 | 41 | – |
| CC(Oc1ccc(Cl)cc1OC1CNC1)c1cccc(F)c1 (racemic) [Example 115, (±)-3-[5-Chloro-2-[1-(3-fluoro-phenyl)-ethoxy]-phenoxy]-azetidine] | 202 | 33 | – |
| C[C@H](Oc1ccc(Cl)cc1OC1CNC1)c1cccc(C(F)(F)F)c1 [Example 102, (S)-3-[5-Chloro-2-[1-(3-trifluoromethyl-phenyl)-ethoxy]-phenoxy]-azetidine trifluoroacetate] | 954 | 376 | – |

More lines, now with the values ahead:

| Ki [1] [nM] | Ki [2, 3] [nM] | Ki ([2]; rat 5-HT7, HEK-293 membranes) [nM] | SMILES |
| --- | --- | --- | --- |
| 95 | 16 | – | Clc1ccc(OCC2CCc3ccccc3O2)c(OC2CNC2)c1 (stereo not shown) [Example 165, 3-[5-Chloro-2-(chroman-2-ylmethoxy)-phenoxy]-azetidine] |
| 925 | – | 3 | CC(C)(C)N1CC(Oc2cc(Br)ccc2OCc2cccc(F)c2)C1 [Example 229, 3-[5-Bromo-2-(3-fluoro-benzyloxy)-phenoxy]-1-tert-butyl-azetidine] |
| 1 | – | 3 | FC(F)(F)c1ccc(COc2ccc(Br)cc2CC2CNC2)o1 [Example 232, 3-[5-Bromo-2-(5-trifluoromethyl-furan-2-ylmethoxy)-benzyl]-azetidine] |
| 4 | 11 | – | Fc1ccc2c(c1)CC(Oc1ccc(Cl)cc1OC1CNC1)C2 (stereo not shown) [Example 175, 3-[5-Chloro-2-(5-fluoro-indan-2-yloxy)-phenoxy]-azetidine] |
| 5000 | – | 147 | C[C@H]1[C@H](Oc2cc(Br)ccc2OCc2cccc(F)c2)CN1Cc1ccccc1 (relative stereo) [Example 221, trans-1-Benzyl-3-[5-bromo-2-(3-fluoro-benzyloxy)-phenoxy]-2-methyl-azetidine] |
| 131 | 17 | – | COc1cccc2c1CC(Oc1ccc(Cl)cc1OC1CNC1)C2 (stereo not shown) [Example 178, 3-[5-Chloro-2-(4-methoxy-indan-2-yloxy)-phenoxy]-azetidine] |
| 1200 | – | 6 | CC(C)(C)N1CC(Oc2cc(Cl)ccc2OCc2cccc(C(F)(F)F)c2)C1 [Example 230, 1-tert-Butyl-3-[5-chloro-2-(3-trifluoromethyl-benzyloxy)-phenoxy]-azetidine] |
| 41 | – | 53 | CC1(Oc2cc(Br)ccc2OCc2cccc(Cl)c2)CNC1 [Example 212, 3-[5-Bromo-2-(3-chloro-benzyloxy)-phenoxy]-3-methyl-azetidine] |
| 53 | 359 | – | Clc1cnc(OCc2ccccc2)c(OC2CNC2)c1 [Example 196, 3-(Azetidin-3-yloxy)-2-benzyloxy-5-chloro-pyridine] |
| 23 | – | 27 | Clc1cccc(COc2ccc(Br)cc2OCC2CNC2)c1 [Example 233, 3-[5-Bromo-2-(3-chloro-benzyloxy)-phenoxymethyl]-azetidine] |
| 242 | 25 | – | Clc1ccc(OCc2cc3ccccc3o2)c(OC2CNC2)c1 [Example 89, 3-[2-(Benzofuran-2-ylmethoxy)-5-chloro-phenoxy]-azetidine] |
| 4480 | – | 15 | CC(Oc1ccc(Cl)cc1OC1CN(C(C)(C)C)C1)c1cccc(C(F)(F)F)c1 (stereo not shown) [Example 231, 1-tert-Butyl-3-[5-chloro-2-[1-(3-trifluoromethyl-phenyl)-ethoxy]-phenoxy]-azetidine] |
| 75 | 24 | – | Clc1ccc2c(c1)CC(Oc1ccc(Cl)cc1OC1CNC1)C2 (stereo not shown) [Example 176, 3-[5-Chloro-2-(5-chloro-indan-2-yloxy)-phenoxy]-azetidine] |
| 1690 | – | 9000 | CC(C)C1(Oc2cc(Br)ccc2OCc2cccc(Cl)c2)CNC1 [Example 214, 3-[5-Bromo-2-(3-chloro-benzyloxy)-phenoxy]-3-isopropyl-azetidine] |
| 1360 | 73 | – | CC(Oc1ccc(Cl)cc1OC1CNC1)c1nc2ccccc2s1 (stereo not shown) [Example 131, 2-[1-[2-(Azetidin-3-yloxy)-4-chloro-phenoxy]-ethyl]-benzothiazole] |
| 234 | 7 | – | Clc1ccc(OCCOc2ccccc2)c(OC2CNC2)c1 [Example 171, 3-[5-Chloro-2-(2-phenoxy-ethoxy)-phenoxy]-azetidine] |
